Activity calls are given as the source filed them. The calls are words filed in the database; no cut-off is given here.
Columns and labels:
[1] = biological target: T1, Prostaglandin E2 receptor EP4 subtype (Homo sapiens, UniProt P35408); experiment: Partial agonist activity at human EP4 receptor expressed in HEK293-AEQ17 cells assessed as cAMP accumulation by aequorin luminescence assay; type: functional, cell-based
[2] = biological target: T1, Prostaglandin E2 receptor EP4 subtype; experiment: Displacement of [3H]PGE2 from human EP4 receptor expressed in HEK 293 (EBNA) cell membranes incubated for 60 mins by scintillation counting method
[3] = biological target: T2, Cytochrome P450 1A2 (Homo sapiens, UniProt P05177); experiment: Inhibition of human recombinant CYP1A2; type: ADME
T2 sequence (P05177 whole entry): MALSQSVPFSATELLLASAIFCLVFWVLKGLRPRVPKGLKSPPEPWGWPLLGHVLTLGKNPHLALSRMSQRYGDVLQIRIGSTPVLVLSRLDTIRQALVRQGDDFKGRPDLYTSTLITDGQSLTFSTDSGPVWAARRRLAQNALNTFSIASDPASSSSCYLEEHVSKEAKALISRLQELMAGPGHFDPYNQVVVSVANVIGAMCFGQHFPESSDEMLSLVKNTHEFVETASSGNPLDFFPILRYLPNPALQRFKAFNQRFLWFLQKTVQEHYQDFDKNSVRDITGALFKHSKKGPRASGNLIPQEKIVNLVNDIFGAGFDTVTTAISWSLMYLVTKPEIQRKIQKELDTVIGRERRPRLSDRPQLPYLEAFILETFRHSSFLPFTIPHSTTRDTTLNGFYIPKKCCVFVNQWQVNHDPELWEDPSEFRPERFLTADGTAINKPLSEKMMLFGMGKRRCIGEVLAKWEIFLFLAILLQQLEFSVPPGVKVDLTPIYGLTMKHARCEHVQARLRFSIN

[4] = biological target: Cytochrome P450 2C19 (Homo sapiens, UniProt P33261); experiment: Inhibition of human recombinant CYP2C19; type: ADME
[5] = biological target: Cytochrome P450 2C9 (Homo sapiens, UniProt P11712); experiment: Inhibition of human recombinant CYP2C9; type: ADME
[6] = biological target: Cytochrome P450 2D6 (Homo sapiens, UniProt P10635); experiment: Inhibition of human recombinant CYP2D6; type: ADME
[7] = biological target: T3, Cytochrome P450 3A4 (Homo sapiens, UniProt P08684); experiment: Inhibition of human recombinant CYP3A4 using DEF substrate; type: ADME
[8] = biological target: T3, Cytochrome P450 3A4; experiment: Inhibition of human recombinant CYP3A4 using 7BQ substrate; type: ADME
[9] = Intrinsic clearance in rat liver microsomes; type: ADME, microsome
[10] = Intrinsic clearance in human liver microsomes; type: ADME, microsome
[11] = Blood clearance in rat at 1 mg/kg, po; type: ADME, organism-based
[12] = test system: Rattus norvegicus; experiment: Volume of distribution at steady state in rat at 1 mg/kg, […]; type: ADME, organism-based; settings: in vivo
[13] = Half life in rat at 1 mg/kg, po; type: ADME, organism-based; settings: in vivo
[14] = test system: Rattus norvegicus; experiment: Analgesic activity in rat model of Freund's complete adjuvant-induced acute inflammatory pain assessed as reversal of FCA-induced hypersensitivity at 10 mg/kg, po relative to untreated control; type: functional
[15] = test system: Rattus norvegicus; experiment: Analgesic activity in rat model of chronic joint pain assessed as reversal of pain by measuring weight bearing level at 30 mg/kg, po dosed twice daily for 5 days relative to untreated control; settings: 120 h, read-out: INH
[16] = test system: Rattus norvegicus; experiment: Analgesic activity in orally dosed rat model of Freund's complete adjuvant-induced acute inflammatory pain assessed as reversal of FCA-induced hypersensitivity; type: functional; settings: po
[17] = Total drug level in blood of orally dosed rat model of Freund's complete adjuvant-induced acute inflammatory pain assessed as reduction in reversal of hypersensitivity; type: ADME, organism-based; settings: in vivo, po, read-out: Drug uptake
[18] = test system: Rattus norvegicus; experiment: Analgesic activity in rat model of Freund's complete adjuvant-induced acute inflammatory pain assessed as reversal of FCA-induced hypersensitivity at 10 mg/kg, po pre-challenged with 3 mg/kg, po selective EP4 antagonist GW627368X; type: functional, organism-based
[19] = test system: Rattus norvegicus; experiment: Analgesic activity in rat model of Freund's complete adjuvant-induced acute inflammatory pain assessed as reversal of FCA-induced hypersensitivity at 3 mg/kg, po relative to untreated control; type: functional
[20] = test system: Rattus norvegicus; experiment: Analgesic activity in rat model of chronic constriction injury-induced neuropathic pain assessed as reversal of mechanical allodynia at 30 mg/kg dosed twice daily for 8 days relative to untreated control; type: functional; settings: 192 h

T1 sequence (P35408 whole entry): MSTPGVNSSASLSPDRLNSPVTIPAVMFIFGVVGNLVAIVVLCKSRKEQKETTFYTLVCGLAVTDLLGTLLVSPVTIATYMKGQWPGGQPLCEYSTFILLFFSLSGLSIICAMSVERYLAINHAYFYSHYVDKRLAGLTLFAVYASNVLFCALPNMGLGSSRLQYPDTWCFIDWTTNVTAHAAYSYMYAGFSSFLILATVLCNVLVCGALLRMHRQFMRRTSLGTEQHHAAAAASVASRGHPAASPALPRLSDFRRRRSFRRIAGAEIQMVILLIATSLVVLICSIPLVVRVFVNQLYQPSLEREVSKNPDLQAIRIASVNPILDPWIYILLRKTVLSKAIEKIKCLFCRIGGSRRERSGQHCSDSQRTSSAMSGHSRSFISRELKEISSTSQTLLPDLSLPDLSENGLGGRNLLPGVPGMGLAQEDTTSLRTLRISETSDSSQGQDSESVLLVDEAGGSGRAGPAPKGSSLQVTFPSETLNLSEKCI
T3 sequence (P08684 whole entry): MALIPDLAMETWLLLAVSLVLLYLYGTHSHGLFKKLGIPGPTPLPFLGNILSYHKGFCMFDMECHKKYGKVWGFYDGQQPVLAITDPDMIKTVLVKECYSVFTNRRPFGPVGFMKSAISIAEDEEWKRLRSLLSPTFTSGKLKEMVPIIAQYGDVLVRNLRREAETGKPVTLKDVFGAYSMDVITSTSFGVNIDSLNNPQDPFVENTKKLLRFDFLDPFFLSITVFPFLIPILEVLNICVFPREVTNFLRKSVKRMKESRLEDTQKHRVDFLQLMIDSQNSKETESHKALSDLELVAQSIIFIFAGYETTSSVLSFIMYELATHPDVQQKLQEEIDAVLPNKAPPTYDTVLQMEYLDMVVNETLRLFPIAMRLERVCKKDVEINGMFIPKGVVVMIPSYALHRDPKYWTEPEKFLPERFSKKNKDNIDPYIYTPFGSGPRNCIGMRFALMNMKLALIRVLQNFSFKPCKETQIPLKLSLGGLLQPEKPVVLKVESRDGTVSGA
Sequence of Cytochrome P450 2C19 (P33261 whole entry): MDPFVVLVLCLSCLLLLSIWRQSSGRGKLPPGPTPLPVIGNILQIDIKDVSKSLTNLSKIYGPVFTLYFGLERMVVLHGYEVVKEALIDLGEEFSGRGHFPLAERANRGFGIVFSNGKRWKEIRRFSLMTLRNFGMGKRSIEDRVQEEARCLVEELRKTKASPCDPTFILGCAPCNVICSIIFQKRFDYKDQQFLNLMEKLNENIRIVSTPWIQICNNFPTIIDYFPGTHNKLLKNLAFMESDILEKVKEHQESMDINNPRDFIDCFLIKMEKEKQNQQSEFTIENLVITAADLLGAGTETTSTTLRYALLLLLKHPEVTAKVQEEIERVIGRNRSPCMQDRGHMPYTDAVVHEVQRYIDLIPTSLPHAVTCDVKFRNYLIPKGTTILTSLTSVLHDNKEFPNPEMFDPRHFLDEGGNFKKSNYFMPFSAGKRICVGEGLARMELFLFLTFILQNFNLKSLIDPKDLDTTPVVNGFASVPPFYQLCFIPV
Sequence of Cytochrome P450 2D6 (P10635 whole entry): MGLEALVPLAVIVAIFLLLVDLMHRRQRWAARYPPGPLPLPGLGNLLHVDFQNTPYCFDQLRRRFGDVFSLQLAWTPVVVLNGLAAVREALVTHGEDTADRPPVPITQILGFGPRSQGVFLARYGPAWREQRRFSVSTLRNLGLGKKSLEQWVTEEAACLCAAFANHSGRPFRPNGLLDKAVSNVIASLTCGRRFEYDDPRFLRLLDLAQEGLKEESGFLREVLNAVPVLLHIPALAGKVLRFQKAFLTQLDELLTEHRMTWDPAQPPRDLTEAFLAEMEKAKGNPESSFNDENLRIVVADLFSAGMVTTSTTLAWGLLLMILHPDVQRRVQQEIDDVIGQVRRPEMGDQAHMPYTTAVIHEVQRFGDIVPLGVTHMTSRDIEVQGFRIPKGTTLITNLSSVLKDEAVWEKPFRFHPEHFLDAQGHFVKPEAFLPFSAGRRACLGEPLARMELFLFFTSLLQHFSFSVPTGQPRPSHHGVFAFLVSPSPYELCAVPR
Sequence of Cytochrome P450 2C9 (P11712 whole entry): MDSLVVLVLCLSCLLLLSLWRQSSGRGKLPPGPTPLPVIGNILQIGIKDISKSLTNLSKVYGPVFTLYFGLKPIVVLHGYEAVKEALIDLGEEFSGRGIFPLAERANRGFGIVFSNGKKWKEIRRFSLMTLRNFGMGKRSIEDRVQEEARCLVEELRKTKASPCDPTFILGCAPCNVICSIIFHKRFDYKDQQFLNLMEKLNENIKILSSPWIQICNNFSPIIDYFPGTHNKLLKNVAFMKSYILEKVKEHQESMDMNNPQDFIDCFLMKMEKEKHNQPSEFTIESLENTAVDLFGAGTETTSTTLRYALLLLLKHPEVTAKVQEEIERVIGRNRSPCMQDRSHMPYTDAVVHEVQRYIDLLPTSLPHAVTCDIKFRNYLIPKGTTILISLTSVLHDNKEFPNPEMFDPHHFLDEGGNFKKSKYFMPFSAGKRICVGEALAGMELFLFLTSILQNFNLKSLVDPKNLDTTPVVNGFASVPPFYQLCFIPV

Compound | EC50 [1] | Ki [2] | other results
CCOc1c2c(c(OCC)c3ccccc13)C(=O)N(c1ccc(CC(=O)O)cc1)C2=O | 25.1 nM | 158 nM | IC50 [3]: 65000 nM; IC50 [4]: > 100000 nM; IC50 [5]: > 100000 nM; IC50 [6]: 42000 nM; IC50 [7]: > 100000 nM; IC50 [8]: > 100000 nM; CLH [9]: < 0.5 mL/min/g; CLH [10]: < 0.5 mL/min/g; CL/F [11]: 0.2 mL/min/kg; Vdss [12]: 0.28 L/kg; half-life [13]: 19.9 h
CCOc1c2c(c(OCC)c3cc(C)ccc13)C(=O)N(c1ccc(CC(=O)O)cc1)C2=O | 20 nM | 158 nM | half-life [13]: 31.7 h; Activity [14]: 76%
Cc1ccc(-c2cc(C(F)(F)F)nn2-c2ccc(S(N)(=O)=O)cc2)cc1 [CELECOXIB] |  |  | Activity [14]: Active; inhibition in vivo at 30 mg/kg [15]: 100%
CCOc1c2c(c(OCC)c3ccccc13)C(=O)N(c1ccc(CC(=O)O)c(C)c1)C2 | > 1000 nM |  | 
CCOc1c2c(c(OCC)c3ccccc13)CN(c1ccc(CC(=O)O)cc1)C2 | 251 nM | 631 nM | 
CCOc1c2c(c(OCC)c3ccccc13)C(=O)N(c1ccc(C(C)C(=O)O)cc1)C2 (stereo unspecified) | > 1000 nM | 200 nM | 
CCCCCCOc1c2c(c(OCCCCCC)c3ccccc13)C(=O)N(c1ccc(CC(=O)O)cc1)C2 | > 1000 nM | > 6310 nM | 
CCOc1c2c(c(OCC)c3ccccc13)C(=O)N(c1ccc(CC(=O)O)cc1)C2 | 20 nM | 79.4 nM | CL/F [11]: 0.6 mL/min/kg; Vdss [12]: 0.3 L/kg; half-life [13]: 8.5 h; ED50 [16]: 1.5 mg/kg; concentration [17]: 5 to 11 µM; Activity [18]: inactive
CC(C)Oc1c2c(c(OC(C)C)c3ccccc13)C(=O)N(c1ccc(CC(=O)O)cc1)C2 | 39.8 nM | 398 nM | 
CCOc1c2c(c(OCC)c3ccccc13)C(=O)N(c1ccc(CC(=O)O)cc1Cl)C2 | 5.01 nM |  | Activity [19]: 14%
CCOc1c2c(c(OCC)c3ccccc13)C(=O)N(c1ccc(CC(=O)O)cc1C(F)(F)F)C2 | 50.1 nM |  | 
CCCCOc1c2c(c(OCCCC)c3ccccc13)C(=O)N(c1ccc(CC(=O)O)cc1)C2 | 200 nM | 2000 nM | 
CCOc1c2c(c(OCC)c3ccccc13)C(=O)N(c1ccc(CC(=O)O)cc1C)C2 | 7.94 nM |  | Activity [19]: 19%
NCC1(CC(=O)O)CCCCC1 [GABAPENTIN] |  |  | inhibition in vivo at 30 mg/kg [20]: 100%
CCCOc1c2c(c(OCCC)c3ccccc13)C(=O)N(c1ccc(CC(=O)O)cc1)C2 | 126 nM | 631 nM | 
CCOc1c2c(c(OCC)c3ccccc13)C(=O)N(c1ccc(CC(=O)O)cc1OC)C2 | 10 nM |  | 
CCOc1c2c(c(OCC)c3ccccc13)C(=O)N(c1ccc(CC(=O)O)cc1Br)C2 | 5.01 nM |  | Activity [14]: 47%
CCOc1c2c(c(OCC)c3ccccc13)C(=O)N(c1ccc(CC(=O)O)c(Cl)c1)C2 | > 1000 nM |  | 
CCOc1c2c(c(OCC)c3ccccc13)C(=O)N(c1ccc(CC(=O)O)cc1F)C2 | 3.98 nM |  | Activity [19]: 5%
CCOc1c2c(c(OCC)c3cc(F)ccc13)C(=O)N(c1ccc(CC(=O)O)cc1)C2=O | 79.4 nM |  | 
COc1c2c(c(OC)c3ccccc13)C(=O)N(c1ccc(CC(=O)O)cc1)C2=O | 200 nM |  | 
CCOc1c2c(c(OCC)c3ncccc13)C(=O)N(c1ccc(CC(=O)O)cc1)C2=O | > 1000 nM | 31.6 nM | 

Source: ChEMBL document CHEMBL4219215, “Discovery of {4-[4,9-bis(ethyloxy)-1-oxo-1,3-dihydro-2H-benzo[f]isoindol-2-yl]-2-fluorophenyl}acetic acid (GSK726701A), a novel EP4 receptor partial agonist for the treatment of pain” (Bioorg Med Chem Lett, 2018)
